{"source": "patent US9381173B2", "about": "“Isolated stereoisomeric forms of (S)2-N(3-O-(propan 2-Ol)-1-propyl-4-hydroxybenzene)-3-phenylpropylamide” (Novaremed Ltd., priority 2011, dated 2016)", "system": "spinal nerve ligation (SNL or Chung) model for neuropathic pain in rats", "test": "Spinal nerve ligation (Chung) model, Von Frey test for mechanical allodynia", "type": "in vivo", "conditions": "for delta force right minus left leg, Day 14 Pretreatment / mean Von Frey force, left operated leg, Day 14 Pretreatment: before first dose; for difference (delta) force between right healthy leg and left operated leg, Baseline: before operation; for mean Von Frey force required for withdrawal of the left operated leg, Baseline: day -1, before operation", "procedure": "The antinociceptive and analgesic activity of E1 in a spinal nerve ligation (SNL or Chung) model for neuropathic pain in rats was evaluated.\nOn study day 0, all animals underwent Chung surgery, which consisted of an operation where the left L5-L6 spinal nerves were isolated and cut. Fourteen days post surgery the animals were selected using pain threshold results from the Von Frey test. Only animals that indicated signs of mechanical allodynia were included in the study. After the selection process, the animals were grouped and Test Items were administered via IP. The pain response was measured using Von Frey methodology at 2, 5 and 24 hours after Test Item administration on study day 14, and at 2, 5, 24 and 48 hours on study day 21 after 7 days of Test Item administration.\nSpecies: 50 SD young adult male rats, 225-260 g at study initiation (Harlan Laboratories, Israel. Ltd.)\nNeuropathic Pain Induction: While under anesthesia using ketamine/xylazine sodium and after the area was shaved, the rat was placed in a prone position and the left paraspinal muscles were separated from the spinous process at the L4-S2 levels. The L6 vertebral transverse process was carefully removed with a small rongeur to visually identify the L5-L6 spinal nerves. The left L5-L6 spinal nerves were cut. The muscle was then closed with 4-0 silk sutures and the skin was closed by a clamp. Following surgery, the rats were returned to the cage and remained under a heating lamp until they awoke.\nInclusion/Exclusion Criteria for Pre-Selection: On post-operative day 14, animals were tested for mechanical allodynia using Von Frey methodology prior to being placed in their experimental groups. Only animals with a pain threshold of ≦26 g for the operated leg were included in the study. In order to form homogenous treatment groups and to adhere to randomization, all the operated rats were grouped according to inclusion/exclusion criteria.\nThe Von Frey test was performed prior to Test Items' administrations (pre-TI injection) and at 2 and 5 hours after TI administration (post-TI injection) on study days 14 and 21.\nVon Frey test was performed prior to TI's administration on study day 15 (24 hours post-TI's administration on study day 14) and on study days 22 and 23 (24 and 48 hours respectively post-TI's administration on study day 21).\nPain Response Evaluation: Pain response was evaluated using Von Frey test for mechanical allodynia.\nThe Von Frey test for mechanical allodynia is based on applying short pulses of pressure that are not painful to a naive animal. In fact, in order to achieve paw withdrawal from a naive animal, the pressure applied is sometimes higher than 60 g. This often requires the researcher to apply enough pressure with the Von Frey filament to actually lift the paw of the naive animal. However, in disease conditions, the animals are sensitive to much lower pressure and experience pain as a result of a normally non-painful stimulus.\nMechanical Allodynia Evaluation (Von Frey Testing): Allodynic response to tactile stimulation was assessed using the Von Frey apparatus (Touch®).\nThe rats were placed in an enclosure and positioned on a metal mesh surface, but allowed to move freely. The rats' cabins were covered with red cellophane to diminish environmental disturbances. The test began after cessation of exploratory behavior. The set of Von Frey monofilaments provide an approximate logarithmic scale of actual force and a linear scale of perceived intensity as provided by the manufacturer of the Von Frey apparatus (Ugo Basil). The operating principle: When the tip of a fiber of given length and diameter is pressed against the skin at right angles, the force of application increases as long as the researcher continues to advance the probe until the fiber bends. After the fiber bends, the probe continues to advance, causing the fiber to bend more, but without additional force being applied to the paw. […]", "key": {"[1]": {"conditions": "7.5 mg/kg IP, day 14, 2, 5 and 24 hours"}, "[2]": {"conditions": "7.5 mg/kg IP, study day 14, 2, 5 and 24 hours"}, "[3]": {"conditions": "15 mg/kg IP once daily day 14-21 (group 4)"}, "[4]": {"conditions": "15 mg/kg IP, day 14, 5 and 24 hours"}, "[5]": {"conditions": "15 mg/kg IP, study day 14, 5 and 24 hours"}, "[6]": {"conditions": "30 mg/kg IP once daily day 14-21 (group 3)"}, "[7]": {"conditions": "30 mg/kg IP once daily from day 14 (group 3)"}, "[8]": {"conditions": "30 mg/kg IP, day 21, 2, 5 and 24 hours"}}, "data": [{"smiles": "CC(O)COCC(Cc1ccc(O)cc1)NC(=O)CCc1ccccc1", "note": "(single isomer, unassigned) [E1]", "values": [{"measurement": "delta force right minus left leg, Day 14 Pretreatment", "setting": "7.5 mg/kg IP (group 5)", "value": "50.10 ± 0.64", "unit": "g"}, {"measurement": "mean Von Frey force, left operated leg, Day 14 Pretreatment", "setting": "7.5 mg/kg IP (group 5)", "value": "9.90 ± 0.64", "unit": "g"}, {"measurement": "difference (delta) force between right healthy leg and left operated leg, Baseline", "setting": "7.5 mg/kg IP (group 5)", "value": "0.00 ± 0.00", "unit": "g"}, {"measurement": "mean Von Frey force required for withdrawal of the left operated leg, Baseline", "setting": "7.5 mg/kg IP (group 5)", "value": "56.60 ± 3.40", "unit": "g"}, {"measurement": "inhibition of allodynia compared to the pretreatment value of delta withdrawal force", "setting": "[1]", "value": "inhibited allodynia"}, {"measurement": "pain relief activity, delta withdrawal force between the two legs vs. Vehicle", "setting": "[1]", "value": "significant pain relief activity"}, {"measurement": "inhibition of allodynia compared to the pretreatment value of delta withdrawal force", "setting": "7.5 mg/kg IP, day 21, 5 hours", "value": "inhibited allodynia"}, {"measurement": "pain relief activity, delta withdrawal force between the two legs vs. Vehicle", "setting": "7.5 mg/kg IP, day 21 pretreatment, 2, 5, 24 and 48 hours", "value": "significant pain relief activity"}, {"measurement": "inhibition of allodynia (Von Frey) compared to the Vehicle control", "setting": "[2]", "value": "effectively inhibited allodynia"}, {"measurement": "inhibition of allodynia (Von Frey) compared to the pretreatment value", "setting": "[2]", "value": "inhibited allodynia"}, {"measurement": "inhibition of allodynia (Von Frey) compared to the pretreatment value", "setting": "7.5 mg/kg IP, study day 21, 5 hours", "value": "inhibited allodynia"}, {"measurement": "inhibition of allodynia (Von Frey) compared to the Vehicle control", "setting": "7.5 mg/kg IP, study day 21 pretreatment and 2, 5, 24 and 48 hours", "value": "inhibited allodynia"}, {"measurement": "conclusion: pain analgesic item, parameters of mechanical allodynia", "setting": "7.5 mg/kg, 2, 5 and 24 hours day 14, 2, 5, 24 and 48 hours day 21", "value": "effective"}, {"measurement": "delta force right minus left leg, Day 14 Post-treatment 2 hours", "setting": "15 mg/kg IP (group 4)", "value": "48.20 ± 5.67", "unit": "g"}, {"measurement": "delta force right minus left leg, Day 14 Post-treatment 5 hours", "setting": "15 mg/kg IP (group 4)", "value": "29.20 ± 6.66", "unit": "g"}, {"measurement": "mean Von Frey force, left operated leg, Day 14 Post-treatment 2 hours", "setting": "15 mg/kg IP (group 4)", "value": "11.80 ± 5.67", "unit": "g"}, {"measurement": "delta force right minus left leg, Day 14 Pretreatment", "setting": "15 mg/kg IP (group 4)", "value": "50.20 ± 0.90", "unit": "g"}, {"measurement": "mean Von Frey force, left operated leg, Day 14 Pretreatment", "setting": "15 mg/kg IP (group 4)", "value": "9.80 ± 0.90", "unit": "g"}, {"measurement": "difference (delta) force between right healthy leg and left operated leg, Baseline", "setting": "15 mg/kg IP (group 4)", "value": "0.00 ± 0.00", "unit": "g"}, {"measurement": "mean Von Frey force required for withdrawal of the left operated leg, Baseline", "setting": "15 mg/kg IP (group 4)", "value": "56.60 ± 3.40", "unit": "g"}, {"measurement": "delta force right minus left leg, Day 21 Post-treatment 48 hours", "setting": "[3]", "value": "39.80 ± 4.80", "unit": "g"}, {"measurement": "mean Von Frey force, left operated leg, Day 21 Post-treatment 48 hours", "setting": "[3]", "value": "20.20 ± 4.80", "unit": "g"}, {"measurement": "inhibition of allodynia compared to the pretreatment value of delta withdrawal force", "setting": "[4]", "value": "inhibited allodynia"}, {"measurement": "pain relief activity, delta withdrawal force between the two legs vs. Vehicle", "setting": "[4]", "value": "significant pain relief activity"}, {"measurement": "pain relief activity, delta withdrawal force between the two legs vs. Vehicle", "setting": "15 mg/kg IP, day 21 pretreatment, 2, 5 and 24 hours", "value": "significant pain relief activity"}, {"measurement": "inhibition of allodynia (Von Frey) compared to the Vehicle control", "setting": "[5]", "value": "inhibited allodynia"}, {"measurement": "inhibition of allodynia (Von Frey) compared to the pretreatment value", "setting": "[5]", "value": "inhibited allodynia"}, {"measurement": "inhibition of allodynia (Von Frey) compared to the Vehicle control", "setting": "15 mg/kg IP, study day 14, 2 hours", "value": "did not inhibit allodynia"}, {"measurement": "inhibition of allodynia (Von Frey) compared to the Vehicle control", "setting": "15 mg/kg IP, study day 21, 48 hours", "value": "less effective"}, {"measurement": "inhibition of allodynia (Von Frey) compared to the Vehicle control", "setting": "15 mg/kg IP, study day 21 pretreatment, 2, 5 and 24 hours", "value": "inhibited allodynia"}, {"measurement": "conclusion: pain analgesic item, parameters of mechanical allodynia", "setting": "15 mg/kg, 5 and 24 hours day 14, 2, 5 and 24 hours day 21", "value": "effective"}, {"measurement": "delta force right minus left leg, Day 14 Post-treatment 2 hours", "setting": "30 mg/kg IP (group 3)", "value": "46.80 ± 1.70", "unit": "g"}, {"measurement": "delta force right minus left leg, Day 14 Post-treatment 24 hours", "setting": "30 mg/kg IP (group 3)", "value": "34.80 ± 6.25", "unit": "g"}, {"measurement": "mean Von Frey force, left operated leg, Day 14 Post-treatment 2 hours", "setting": "30 mg/kg IP (group 3)", "value": "13.20 ± 1.70", "unit": "g"}, {"measurement": "mean Von Frey force, left operated leg, Day 14 Post-treatment 5 hours", "setting": "30 mg/kg IP (group 3)", "value": "30.60 ± 5.10", "unit": "g"}, {"measurement": "delta force right minus left leg, Day 14 Pretreatment", "setting": "30 mg/kg IP (group 3)", "value": "49.50 ± 1.06", "unit": "g"}, {"measurement": "mean Von Frey force, left operated leg, Day 14 Pretreatment", "setting": "30 mg/kg IP (group 3)", "value": "10.50 ± 1.06", "unit": "g"}, {"measurement": "difference (delta) force between right healthy leg and left operated leg, Baseline", "setting": "30 mg/kg IP (group 3)", "value": "0.00 ± 0.00", "unit": "g"}, {"measurement": "mean Von Frey force required for withdrawal of the left operated leg, Baseline", "setting": "30 mg/kg IP (group 3)", "value": "60.00 ± 0.00", "unit": "g"}, {"measurement": "delta force right minus left leg, Day 21 Post-treatment 48 hours", "setting": "[6]", "value": "51.10 ± 0.82", "unit": "g"}, {"measurement": "mean Von Frey force, left operated leg, Day 21 Post-treatment 2 hours", "setting": "[6]", "value": "19.40 ± 1.80", "unit": "g"}, {"measurement": "mean Von Frey force, left operated leg, Day 21 Post-treatment 5 hours", "setting": "[6]", "value": "22.90 ± 4.64", "unit": "g"}, {"measurement": "mean Von Frey force, left operated leg, Day 21 Post-treatment 24 hours", "setting": "[6]", "value": "17.50 ± 2.48", "unit": "g"}, {"measurement": "mean Von Frey force, left operated leg, Day 21 Post-treatment 48 hours", "setting": "[6]", "value": "8.90 ± 0.82", "unit": "g"}, {"measurement": "delta force right minus left leg, Day 21 Pretreatment", "setting": "[7]", "value": "47.00 ± 1.76", "unit": "g"}, {"measurement": "mean Von Frey force, left operated leg, Day 21 Pretreatment", "setting": "[7]", "value": "13.00 ± 1.76", "unit": "g"}, {"measurement": "inhibition of allodynia compared to the pretreatment value of delta withdrawal force", "setting": "30 mg/kg IP, day 14, 5 hours", "value": "inhibited allodynia"}, {"measurement": "pain relief activity, delta withdrawal force between the two legs vs. Vehicle", "setting": "30 mg/kg IP, day 14, 5 hours", "value": "significant pain relief activity"}, {"measurement": "inhibition of allodynia compared to the pretreatment value of delta withdrawal force", "setting": "[8]", "value": "inhibited allodynia"}, {"measurement": "pain relief activity, delta withdrawal force between the two legs vs. Vehicle", "setting": "[8]", "value": "significant pain relief activity"}, {"measurement": "inhibition of allodynia (Von Frey) compared to the pretreatment value", "setting": "30 mg/kg IP, study day 14, 5 hours", "value": "inhibited allodynia"}, {"measurement": "inhibition of allodynia (Von Frey) compared to the pretreatment value", "setting": "30 mg/kg IP, study day 21, 2, 5 and 24 hours", "value": "inhibited allodynia"}, {"measurement": "conclusion: pain analgesic item, parameters of mechanical allodynia", "setting": "30 mg/kg, at 5 post administration day 14, 2, 5 and 24 hours day 21", "value": "effective"}, {"measurement": "duration of analgesic effect post administration", "setting": "summary statement", "value": "more than 24 hours"}, {"measurement": "behaviour of the operated paw on the Von Frey apparatus", "setting": "treated animals", "value": "laid completely the operated paw on the metal mesh surface"}]}]}
